Data reported in PMC11855827, “High-Throughput Screening of Five Compound Libraries for Anthelmintic Activity and Toxicity Leads to the Discovery of Two Flavonoid Compounds” (International Journal of Molecular Sciences, 2025).
Counter-ions that a name gives are not always drawn. Like-named read-outs stand apart in the source and are kept apart here.

System: C. elegans
Assay: microbe, parasite or virus in culture
Conditions: Caenorhabditis elegans
[1] = 0 h, read-out: Percentage of motility inhibition 0 h, Table S2, C. elegans SS assay, 110 μM, 0 h, averages of 4 data points
[2] = 24 h, read-out: Percentage of motility inhibition 24 h, Table S2, C. elegans SS assay, 110 μM, 24 h, averages of 4 data points
[3] = 0 h, read-out: Percentage of motility inhibition 0 h
[4] = 24 h, read-out: Percentage of motility inhibition 24 h

Row | Compound | inhibition at 110 µM [1] [%] | inhibition at 110 µM [2] [%] | inhibition at 110 µM [3] [%] | inhibition at 110 µM [4] [%]
1 | O=C(CCc1ccc(O)cc1)c1c(O)cc(O)cc1O[C@@H]1O[C@H](CO)[C@@H](O)[C@H](O)[C@H]1O [Phlorizin] | 0 | 2 | – | –
2 | CC1=CC(=O)[C@@H](O)[C@]2(C)[C@H]3[C@@H](O)[C@H](O)[C@]4(CO)OC[C@@]35[C@@H](C[C@@H]12)OC(=O)[C@H](O)[C@]54O [Yadanziolide A] | 0 | 36 | – | –
3 | Nc1nc(=O)n([C@@H]2CS[C@H](CO)O2)cc1F [Emtricitabine] | 26 | 32 | – | –
4 | COC(=O)N/N=C/c1c[n+]([O-])c2ccccc2[n+]1[O-] [Carbadox] | 4 | 0 | – | –
5 | C[C@H]1[C@H](C)CC[C@]2(C)CC[C@]3(C)C(=CC[C@@H]4[C@@]5(C)CC[C@@H](O)[C@](C)(C(=O)O)[C@@H]5CC[C@]43C)[C@H]12 [β-Boswellic acid] | – | – | 32 | 22
6 | O=C(Nc1ccccc1F)N[C@H]1N=C(c2ccccc2)c2ccccc2NC1=O [RSV604] | 37 | 15 | – | –
7 | COc1cc(/C=C/C(=O)O[C@H]2CC[C@]34C[C@]35CC[C@]3(C)[C@@H]([C@H](C)CCC=C(C)C)CC[C@@]3(C)[C@@H]5CC[C@H]4C2(C)C)ccc1O [Cycloartenyl ferulate] | 35 | 21 | – | –
8 | COc1ccc(-c2oc3cc(OC)c(OC)c(O)c3c(=O)c2OC)cc1O [Casticin] | – | – | 9 | 0
9 | COc1cc2c(cc1OC)-c1c(OC)c(OC)cc3c1[C@H](C2)N(C)CC3 [Glauci ne] | 0 | 11 | – | –
10 | C[C@H]1COc2c(N3CCN(C)CC3)c(F)cc3c(=O)c(C(=O)O)cn1c23 [Levofloxacin] | 9 | 10 | – | –
11 | CC(=O)O[C@@H]1C[C@H](O)[C@@]23CO[C@@H](O)[C@]1(C)[C@@H]2C[C@@H](O)[C@]1(C)[C@@H]3C(=O)[C@H](OC(C)=O)[C@@]2(C)[C@H](c3ccoc3)C[C@H]3O[C@]321 [Toosendanin] | 0 | 7 | – | –
12 | C[C@@]1(CO)C[C@@H](O)C[C@@]2(C)[C@@H]3CC[C@](C)([C@@H](O)CO)C=C3CC[C@H]12 [Kirenol] | 0 | 15 | – | –
13 | CCc1nc(N)nc(N)c1-c1ccc(Cl)cc1 [Pyrimethamine] | 35 | 2 | – | –
14 | O=C(O)c1c[nH]c2ccccc12 [Indole‐3‐carboxylic acid] | 0 | 0 | – | –
15 | O=c1c(O)cc([C@H]2Oc3cc(O)cc(O)c3C[C@H]2O)cc2c([C@H]3Oc4cc(O)cc(O)c4C[C@H]3O)cc(O)c(O)c12 [Theaflavin] | 11 | 5 | – | –
16 | CC[C@H]1OC(=O)[C@H](C)[C@@H](O[C@H]2C[C@@](C)(OC)[C@@H](O)[C@H](C)O2)[C@H](C)[C@@H](O[C@@H]2O[C@H](C)C[C@H](N(C)C)[C@H]2O)[C@](C)(O)C[C@@H](C)[C@@H]2N[C@@H](COCCOC)O[C@H]([C@H]2C)[C@]1(C)O [Dirithromycin] | 3 | 0 | – | –
17 | Cc1onc(-c2ccccc2)c1C(=O)N1CCN(c2ccc([N+](=O)[O-])cc2Cl)CC1 [Nucleozin] | 17 | 8 | – | –
18 | C[C@@H]1[C@H]2[C@H](O[C@@H]3O[C@H](CO)[C@@H](O)[C@H](O)[C@H]3O)OC=C(C(=O)O)[C@H]2C[C@@H]1O [Loganic acid] | 28 | 29 | – | –

Row | Compound | inhibition at 110 µM [1] [%] | inhibition at 110 µM [2] [%] | inhibition at 110 µM [3] [%] | inhibition at 110 µM [4] [%]
19 | CC1(C)S[C@@H]2[C@H](NC(=O)Cc3ccccc3)C(=O)N2[C@H]1C(=O)O [Penicillin G s odium salt] | 16 | 22 | – | –
20 | CC[C@@H]1[C@H]2CCCCN3[C@H]2[C@H](C[C@H]3[C@@H]2C[C@H](C)C(=O)O2)[C@@H]2[C@H]1OC(=O)[C@H]2C [Tuberostemonine] | 6 | 4 | – | –
21 | CC(C)(O)[C@@H]1[C@H]2OC(=O)[C@@H]1[C@]1(O)C[C@H]3O[C@]34C(=O)O[C@H]2[C@]14C [Picrotin] | 0 | 0 | – | –
22 | O=c1cccc2n1C[C@H]1C[C@@H]2CN2CCCC[C@H]12 [Anagyrine] | 14 | 6 | – | –
23 | COc1cc(O)c2c(=O)cc(-c3ccc(OC)c(-c4c(O)cc(O)c5c(=O)cc(-c6ccc(O)cc6)oc45)c3)oc2c1 [Ginkgetin] | 13 | 16 | – | –
24 | CC1=CCC(C(C)C)=CC1 [γ-Terpinene] | 6 | 31 | – | –
25 | COc1c(O)cc2c(c1O)[C@@H]1O[C@H](CO)[C@@H](O)[C@H](O)[C@H]1OC2=O [Bergenin] | 21 | 10 | – | –
26 | CCC[C@H](NC(=O)[C@@H]1[C@H]2CCC[C@H]2CN1C(=O)[C@@H](NC(=O)[C@@H](NC(=O)c1cnccn1)C1CCCCC1)C(C)(C)C)C(=O)C(=O)NC1CC1 [Telaprevir] | 7 | 0 | – | –
27 | COc1ccc(-c2cc(=O)c3c(OC)c(OC)c(OC)c(OC)c3o2)cc1 [Tangeretin] | 14 | 8 | – | –
28 | CN1CCN(c2c(F)cc3c(=O)c(C(=O)O)cn4c3c2OCN4C)CC1 [Marbofloxacin] | 23 | 9 | – | –
29 | C/C(=C\CC[C@@H](C)[C@H]1CC[C@@]2(C)C3=C(CC[C@]12C)[C@@]1(C)CCC(=O)C(C)(C)[C@@H]1CC3=O)C(=O)O [Ganoderic acid DM] | – | – | 6 | 1
30 | C/C(C=O)=C\CC[C@@H](C)[C@H]1CC[C@@]2(C)C3=CC[C@H]4C(C)(C)C(=O)CC[C@]4(C)C3=CC[C@]12C [Ganoderal A] | 7 | 25 | – | –
31 | COC(=O)C[C@](O)(CCC(C)(C)O)C(=O)O[C@@H]1C(OC)=C[C@]23CCCN2CCc2cc4c(cc2[C@H]13)OCO4 [Harringtonine] | – | 0 | – | –
32 | CC(C)CCC[C@@H](C)[C@H]1CC[C@H]2[C@@H]3CC=C4C[C@@H](O)CC[C@]4(C)[C@H]3CC[C@]12C [Cholesterol] | 24 | 17 | – | –
33 | COc1cc2c3c(c1OC)-c1ccccc1C[C@H]3N(C)CC2 [Nuciferine] | 0 | 16 | – | –
34 | CC(C)C12CCC(C)(CC1)O2 [1,4-Cineole] | 21 | 35 | – | –
35 | CC(=O)O[C@@]12CO[C@@H]1C[C@H](O)[C@@]1(C)C(=O)[C@H](O)C3=C(C)[C@@H](OC(=O)[C@H](O)[C@@H](NC(=O)OC(C)(C)C)c4ccccc4)C[C@@](O)([C@@H](OC(=O)c4ccccc4)[C@H]21)C3(C)C [Docetaxel] | 1 | 15 | – | –
36 | CC(C)=CCC[C@](C)(O[C@@H]1O[C@H](CO)[C@@H](O)[C@H](O)[C@H]1O)[C@H]1CC[C@]2(C)[C@@H]1[C@H](O)C[C@@H]1[C@@]3(C)CC[C@H](O[C@@H]4O[C@H](CO)[C@@H](O)[C@H](O)[C@H]4O[C@@H]4O[C@H](CO)[C@@H](O)[C@H](O)[C@H]4O)C(C)(C)[C@@H]3CC[C@]12C [Ginsenoside Rd] | 4 | 4 | – | –
